Results: patent US20200345645A1, “COMPOSITIONS COMPRISING INDIGO AND/OR AN INDIGO DERIVATIVE AND METHODS OF USE THEREOF” (Azora Therapeutics, Inc., priority 2019, published 2020)
Where two headings read alike, the source gives them in different places.

Experiments:
[1] = target: T1, aryl hydrocarbon receptor (Homo sapiens, UniProt P35869); details: background statement, "It is known", cited from earlier work
T1 sequence (P35869 11-848): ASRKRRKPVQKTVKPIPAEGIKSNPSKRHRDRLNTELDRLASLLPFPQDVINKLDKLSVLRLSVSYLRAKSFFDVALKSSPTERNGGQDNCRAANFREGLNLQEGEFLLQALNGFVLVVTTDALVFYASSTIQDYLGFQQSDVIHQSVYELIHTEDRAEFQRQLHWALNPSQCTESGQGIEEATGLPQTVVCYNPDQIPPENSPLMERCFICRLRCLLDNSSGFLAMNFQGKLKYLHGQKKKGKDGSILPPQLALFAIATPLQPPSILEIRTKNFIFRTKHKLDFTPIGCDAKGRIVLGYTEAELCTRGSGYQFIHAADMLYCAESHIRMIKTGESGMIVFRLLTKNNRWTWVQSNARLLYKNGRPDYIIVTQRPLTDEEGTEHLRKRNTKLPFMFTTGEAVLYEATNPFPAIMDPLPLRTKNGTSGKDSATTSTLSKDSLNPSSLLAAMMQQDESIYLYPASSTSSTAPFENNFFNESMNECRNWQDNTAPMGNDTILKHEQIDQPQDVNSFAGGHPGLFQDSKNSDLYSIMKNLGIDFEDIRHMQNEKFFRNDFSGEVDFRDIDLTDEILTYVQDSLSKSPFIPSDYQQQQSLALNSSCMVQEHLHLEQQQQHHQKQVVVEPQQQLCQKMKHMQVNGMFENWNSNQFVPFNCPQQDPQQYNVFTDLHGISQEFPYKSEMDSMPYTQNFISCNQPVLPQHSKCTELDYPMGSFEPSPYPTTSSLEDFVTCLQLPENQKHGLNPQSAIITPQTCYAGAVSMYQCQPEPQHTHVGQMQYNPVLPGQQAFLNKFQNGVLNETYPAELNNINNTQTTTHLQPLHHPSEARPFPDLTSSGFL

[2] = Release of indirubin into fasted-state simulated intestinal fluid (FaSSIF), HPLC; format: physicochemical; details: for Amount of indirubin in % Q (measured amount in solution divided by theoretical maximum) / Amount of indirubin in solution: FaSSIF pH 6.5, 37° C., 2 mg total indirubin in 500 mL; for Amount of indirubin in solution: mean of six replicates
Procedure: Additional solid amorphous dispersions of synthetic indirubin in six different hydrophilic carrier polymers-povidone, PVAc-PVCap-PEG, (SOLUPLUS®), copovidone, HPMC-AS, HPMCP and polyvinyl acetate phthalate (PVAP)—were prepared for a further study, as described in Example 15. In this study, dispersions with indirubin to polymer ratios of 1:9 or 0.5:9.5 were prepared, and the release of indirubin into fasted-state simulated intestinal fluid was determined. For comparison, Indigo naturalis and crystalline synthetic indirubin were also tested. The amount of indirubin in fasted-state simulated intestinal fluid was determined by HPLC for samples of the fluid taken. The mean amount of indirubin in solution at each time point was determined, and is shown in Table 1 in units of μg/L and in Table 2 as a percentage, referred to a % Q, of measured amount (mass) of indirubin in solution divided by the theoretical maximum amount (mass) of indirubin in solution.
Solid amorphous dispersions of synthetic indirubin in six different hydrophilic carrier polymers-povidone, PVAc-PVCap-PEG, (SOLUPLUS®), copovidone, HPMC-AS, HPMCP and polyvinyl acetate phthalate (PVAP) with indirubin to polymer ratios of 1:9 or 0.5 to 9.5 were prepared as described in Example 13. For comparison, Indigo naturalis and crystalline synthetic indirubin were also tested. All test articles were normalized to a total indirubin of 2 mg and added to 500 mL of fasted-state simulated intestinal fluid (FaSSIF) medium consisting of 3 mM taurocholate, 0.75 mM phospholipids, 148 mM sodium, 106 mM chloride, and 29 mM phosphate at pH 6.5. Six replicates of each test article were assessed under the following testing conditions: mixing with USP #2 paddles at 100 RPM at 37° C. with sampling of 5 mL at each time point and filtration through a 10 μm filter. […] The mean amount of indirubin in solution at each time point was determined, and is shown in Table 1 in units of μg/L and in Table 2 as a percentage, referred to a % Q, of measured amount (mass) of indirubin in solution divided by the theoretical maximum amount (mass) of indirubin in solution.

human AhR = human AhR (Homo sapiens, UniProt P35869); details: 24 hours incubation, reporter cells from human Huh7 cells expressing human AhR and ARNT
human AhR, sequence (P27540 whole entry partner, one chain of several): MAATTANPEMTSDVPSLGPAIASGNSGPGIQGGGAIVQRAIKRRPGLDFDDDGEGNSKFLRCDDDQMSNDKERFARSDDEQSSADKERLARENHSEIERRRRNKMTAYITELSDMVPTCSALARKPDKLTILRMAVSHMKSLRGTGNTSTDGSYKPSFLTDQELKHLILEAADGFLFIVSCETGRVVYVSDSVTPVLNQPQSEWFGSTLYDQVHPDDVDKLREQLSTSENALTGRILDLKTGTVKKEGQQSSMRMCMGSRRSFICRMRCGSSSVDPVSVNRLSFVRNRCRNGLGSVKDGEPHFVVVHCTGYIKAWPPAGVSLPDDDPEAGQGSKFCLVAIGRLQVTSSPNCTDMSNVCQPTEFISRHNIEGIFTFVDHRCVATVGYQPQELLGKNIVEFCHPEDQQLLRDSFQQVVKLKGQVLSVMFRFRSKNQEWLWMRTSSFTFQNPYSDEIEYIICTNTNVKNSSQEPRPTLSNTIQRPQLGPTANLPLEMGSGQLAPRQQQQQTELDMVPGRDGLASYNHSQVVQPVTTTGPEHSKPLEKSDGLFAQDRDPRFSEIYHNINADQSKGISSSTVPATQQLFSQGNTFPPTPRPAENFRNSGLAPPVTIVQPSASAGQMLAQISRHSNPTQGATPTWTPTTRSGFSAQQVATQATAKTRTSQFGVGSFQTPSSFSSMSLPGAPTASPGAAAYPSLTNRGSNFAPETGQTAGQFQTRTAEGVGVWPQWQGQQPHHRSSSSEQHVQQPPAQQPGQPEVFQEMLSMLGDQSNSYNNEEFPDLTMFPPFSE
Procedure: Each was incubated for 24 hours with reporter cells made from human Huh7 cells expressing human AhR and ARNT with luciferase expressed behind a genetic response element that responds to dimerized AhR/ARNT.
After incubation, the medium was aspirated and a detection reagent was added followed by a measurement of the relative luminescent units compared to a negative control of DMSO.

O=C1Nc2ccccc2/C1=C1/Nc2ccccc2C1=O [Synthetic Indirubin, indirubin]
Agonism of the aryl hydrocarbon receptor [1]: potent agonists | Amount of indirubin in % Q (measured amount in solution divided by theoretical maximum) ([2]; 5 min): 0.02 % Q | Amount of indirubin in solution ([2]; 5 min): 0.02 µg/L | Amount of indirubin in % Q (measured amount in solution divided by theoretical maximum) ([2]; 10 min): 0.03 % Q | Amount of indirubin in solution ([2]; 10 min): 0.03 µg/L | Amount of indirubin in % Q (measured amount in solution divided by theoretical maximum) ([2]; 20 min): 0.03 % Q | Amount of indirubin in solution ([2]; 20 min): 0.03 µg/L | Amount of indirubin in % Q (measured amount in solution divided by theoretical maximum) ([2]; 30 min): 0.03 % Q | Amount of indirubin in solution ([2]; 30 min): 0.03 µg/L | Amount of indirubin in % Q (measured amount in solution divided by theoretical maximum) ([2]; 60 min): 0.04 % Q | Amount of indirubin in solution ([2]; 60 min): 0.04 µg/L | Amount of indirubin in % Q (measured amount in solution divided by theoretical maximum) ([2]; 90 min): 0.05 % Q | Amount of indirubin in solution ([2]; 90 min): 0.05 µg/L | Amount of indirubin in % Q (measured amount in solution divided by theoretical maximum) ([2]; 120 min): 0.07 % Q | Amount of indirubin in solution ([2]; 120 min): 0.07 µg/L | Release of indirubin, of the total amount of indirubin ([2]; FaSSIF, summary of Tables 1 and 2): Less than 0.1% | Activation of the AhR receptor (fold activation relative to DMSO, FIG. 4) (human AhR): potent activator

O=C1/C(=C2\Nc3ccccc3C2=O)Nc2ccccc21 [indigo]
Agonism of the aryl hydrocarbon receptor [1]: potent agonists | Agonism of the aryl hydrocarbon receptor ([1]; listed as Indigo): less potent than indirubin
